What was measured:
patients with ALS [1] = experiment: BENEFIT-ALS clinical trial: Sniff Nasal Inspiratory Pressure (SNIP); type: in vivo, human
Method: (§1) BENEFIT-ALS was a multi-national, randomized, stratified, double-blind, placebo-controlled, parallel-group study of tirasemtiv in patients with ALS. The study consisted of a screening period, an open-label/lead-in period, and a double-blind treatment period. Following screening, eligible patients received open-label tirasemtiv, 125 mg BID, for 7 days. Patients who tolerated the 7-day lead-in period were randomized in a 1:1 ratio to tirasemtiv or placebo. Over the first 3 weeks of double-blind treatment, patients randomized to tirasemtiv had their TDD up-titrated as follows: 250 mg for 7 days, then 375 mg for 7 days, then 500 mg for 7 days. […] However, in such cases, dose escalation was re-attempted at least one additional time. The highest tolerable tirasemtiv dose for each individual patient was the dose that patient received for the remaining 9 weeks (i.e., the maximum tolerated dose [MTD] phase) of the study. Patients randomized to placebo underwent a corresponding dummy dose titration.
(§2) Randomization was stratified by riluzole use. […] Clinical assessments occurred every 4 weeks during double-blind treatment; patients also returned for follow-up evaluations at 1 and 4 weeks after their final dose of double-blind study medication (FIG. 1).
(§3) The secondary objectives included assessments of the effect of tirasemtiv versus placebo on measures of respiratory function (Maximum Voluntary Ventilation (MVV), Sniff Nasal Inspiratory Pressure (SNIP), SVC) and skeletal muscle function including handgrip fatigue and muscle-strength mega-score (i.e., the average z-score for muscle strength measurements across the following tested bilateral muscle groups: elbow flexion, wrist extension, knee extension, ankle dorsiflexion, and handgrip)). Secondary endpoints included the changes from baseline in each of the above mentioned measures (MVV, SNIP, SVC, and muscle-strength mega-score) for the Modified FAS, and the slope of each of the measures from baseline to Week 12 for the Modified FAS.
(§4) Eligible patients were males and females, 18 years of age and older, with a diagnosis of familial or sporadic ALS and meeting the World Federation of Neurology El Escorial criteria of definite ALS, probable ALS, laboratory-supported probable ALS, or possible ALS. Patients were to have an upright SVC>50% of predicted for age, height, and sex, a diminished, but measurable, maximum voluntary grip strength in at least one hand (i.e., between 10-50 pounds for females and 10-70 pounds for males), and at least 4 of the 12 ALSFRS-R questions were to have been scored as a 2 or 3. Patients were to be able to swallow tablets without crushing, and in the opinion of the investigator, were expected to do so for the duration of the study. If the patient needed a caregiver, the caregiver was to be able to observe the patient's status. Clinical laboratory results were to be either within their respective normal ranges or if outside the normal range, deemed not clinically significant by the investigator. […] Patients not taking riluzole prior to study entry were not permitted to take riluzole at any dose during the course of the study.
(§5) Safety data presented were based on the safety analysis set, defined as all patients who received at least 1 dose of double-blind study drug. Of the 605 randomized patients, 596 (295 placebo, 301 tirasemtiv) received at least 1 dose of double-blind study drug and were included in the safety analysis set. Data for the primary and secondary efficacy endpoints were analyzed with the Modified FAS. This analysis set included all patients who received at least 1 dose of double-blind study drug and had at least 1 efficacy assessment during the double-blind treatment period, and excluded 156 patients who were randomized in blocks containing patients affected by a study drug assignment error in which 58 patients randomized to and treated with double-blind tirasemtiv were dispensed double-blind placebo instead. […]

patients with ALS [2] = experiment: BENEFIT-ALS clinical trial: handgrip fatigue at 60% of target in the weaker hand; type: in vivo, human
Method: as §1, §2, §3, §4, §5

cardiac muscle troponin = details: cited from earlier work
[3] = tested on: slow skeletal muscle troponin; details: cited from earlier work
[4] = tested on: muscle contraction / grip strength; details: cited from earlier work
patients with ALS [5] = experiment: BENEFIT-ALS clinical trial: ALSFRS-R total score; type: in vivo, human; details: Modified FAS
Method: as §1
Randomization was stratified by riluzole use. […] Clinical assessments occurred every 4 weeks during double-blind treatment; patients also returned for follow-up evaluations at 1 and 4 weeks after their final dose of double-blind study medication (FIG. 1). […]
Eligible patients were males and females, 18 years of age and older, with a diagnosis of familial or sporadic ALS and meeting the World Federation of Neurology El Escorial criteria of definite ALS, probable ALS, laboratory-supported probable ALS, or possible ALS. Patients were to have an upright SVC>50% of predicted for age, height, and sex, a diminished, but measurable, maximum voluntary grip strength in at least one hand (i.e., between 10-50 pounds for females and 10-70 pounds for males), and at least 4 of the 12 ALSFRS-R questions were to have been scored as a 2 or 3. […]
Safety data presented were based on the safety analysis set, defined as all patients who received at least 1 dose of double-blind study drug. […] Data for the primary and secondary efficacy endpoints were analyzed with the Modified FAS. […]

## C#Cc1cnc2nc(O)n(C(CC)CC)c2n1 [Tirasemtiv, 6-ethynyl-1-(pentan-3-yl)-1H-imidazo[4,5-b]pyrazin-2(3H)one]
Patients with ALS [1]; Modified FAS N=178
  SNIP slope from baseline to Week 12: −0.053
Patients with ALS [1]; Week 4, Modified FAS N=178
  SNIP change from baseline (LS mean): −4.33 cm H2O
Patients with ALS [1]; Week 8, Modified FAS N=178
  SNIP change from baseline (LS mean): −3.55 cm H2O
Patients with ALS [1]; Week 12, Modified FAS N=178
  SNIP change from baseline (LS mean): −5.03 cm H2O
Patients with ALS [1]; p=0.012 and 0.050
  SNIP versus placebo, in words: statistically significantly greater decrease in SNIP at Weeks 4 and 8
Patients with ALS [1]; p=0.2108
  SNIP difference in slope (tirasemtiv vs placebo): −0.0312
Patients with ALS [2]; Modified FAS N=178
  Handgrip fatigue slope from baseline to Week 12: 0.0458
Patients with ALS [2]; Week 4, Modified FAS N=178
  Handgrip fatigue at 60% of target in the weaker hand, change from baseline (LS mean): -1.77 s
Patients with ALS [2]; Week 8, Modified FAS N=178
  Handgrip fatigue at 60% of target in the weaker hand, change from baseline (LS mean): 4.60 s
Patients with ALS [2]; Week 12, Modified FAS N=178
  Handgrip fatigue at 60% of target in the weaker hand, change from baseline (LS mean): -0.57 s
Patients with ALS [2]; human, in vivo
  Handgrip fatigue versus placebo, in words: no statistically significant difference between treatment groups
Patients with ALS [2]; p=0.6372
  Handgrip fatigue difference in slope (tirasemtiv vs placebo): 0.0332
Cardiac muscle troponin
  Effect on cardiac muscle troponin: no effect
[3]
  Effect on slow skeletal muscle troponin: little effect
[4]; preclinical models of limited neuromuscular input
  Grip strength: increased grip strength
[4]; submaximal nerve stimulation frequencies
  Force of muscle contraction: increased the force of muscle contraction
Patients with ALS [5]; Visits 6 and 7
  ALSFRS total score change versus placebo, in words: not statistically different between treatment groups
Patients with ALS [5]; Visits 6 and 7, 95% CI −1.30, 0.14, p=0.114
  LS mean±SE difference between treatment groups (tirasemtiv response minus placebo response) in ALSFRS total score change: −0.58±0.366
Patients with ALS [5]; after approx. 8 and 12 weeks double-blind, tirasemtiv BID up to 500 mg/day
  LS mean change from baseline to the average of ALSFRS total score at Visits 6 and 7: −2.98

From patent US20170042890A1, “METHODS OF REDUCING DECLINE IN VITAL CAPACITY” (Cytokinetics, Inc., priority 2014, published 2017)
